This is an account of results in article PMC8018184, “Evaluation of the Pharmacophoric Role of the O–O Bond in Synthetic Antileishmanial Compounds: Comparison between 1,2-Dioxanes and Tetrahydropyrans” (Journal of Medicinal Chemistry, 2020).

Read-outs that look alike come from different tables or passages of the source.

Series [1] deals with L. donovani promastigotes. Put plainly: Promastigote growth inhibition in the presence of an iron chelator (DFO or DFP), isobologram. The class given is cell-based, Leishmania donovani. Particulars: synergism <0.5, antagonism >4.0, else additivity. As to the method:
At first, we determined IC50 and CC50 values of the iron chelator DFO (187 and >400 μM, respectively). Then, the effect of the iron chelator presence on the bioactivity of the two compounds was studied by coincubating 2a and 3a with DFO at different concentrations. The variation of IC50 of the compounds in relation to the different doses of DFO was determined by the alamarBlue assay (Table 3), and the isobole technique was employed to depict the interactions of 2a and 3a with DFO (Figure 6).
The isobole technique was used for depicting synergistic or antagonistic interaction between the iron chelator and the two compounds on the parasite growth (Figure 6). Combinations are expressed as the sum of the fractional inhibitory concentrations (ΣFIC), and FIC values are defined as synergism (<0.5), antagonism (>4.0), and additivity (no interaction). The strength of synergism (or antagonism) is indicated by the degree of deviation from the line of additivity.
[…]. Each compound was added using a concentration range including the IC50 of each compound. Each experiment was performed in duplicate. The viability of the parasites was determined by the alamarBlue assay. The fractional inhibitory concentration (FIC; FIC = IC50 of the drug in the combination/IC50 of the drug when tested alone) of each compound was calculated and plotted as an isobologram.

Series [2] relates to L. donovani promastigotes (MHOM/NP/02/BPK282/0cl4). Put plainly: Promastigote growth inhibition assay (alamarBlue). The class given is cell-based, Leishmania donovani. To be noted: for IC50: Leishmania donovani; for Selectivity index (SI) = CC50/IC50: Vero CC50 / IC50 on promastigotes; for Activity against promastigotes under the bioassay conditions: 40 μM compound. The protocol:
The bioactivity of the new tetrahydropyrans 3 was initially evaluated against the extracellular promastigote forms of L. donovani (MHOM/NP/02/BPK282/0cl4) as the reference strain, indicative of the leishmaniasis in the Old World. The results were expressed as IC50, i.e., the concentration of the product required to inhibit the parasite growth by 50%. When a compound could inhibit the promastigote growth, its cytotoxicity was also evaluated on Vero cells (Table 1) and on THP-1 cells (see the Supporting Information, Table S3) and the corresponding selectivity indexes (SIs) were calculated. The performance of each tetrahydropyran 3 was compared with that of the corresponding endoperoxide 2 (Table 1).
Promastigotes of a L. donovani reference strain (MHOM/NP/02/BPK282/0cl4) were maintained at 26 °C in a liquid custom-made medium, HOMEM Cat. no: 1140-082 (Gibco Thermo Fisher Scientific Inc., Waltham, USA), complete composition: S-MEM (Eagle) 1 × 1 liter pack, glucose (1–2 g), sodium bicarbonate (0.3 g), sodium pyruvate (0.11 g), p-aminobenzoic acid (1 mg), biotin (0.1 mg), HEPES (4.77–5.96 g), MEM amino acids (10 mL), MEM nonessential amino acids (10 mL), pH 7.5–7.6, supplemented with 20% fetal bovine serum (FBS, EuroClone SpA, Milan, Italy)[123] and 1% penicillin–streptomycin (EuroClone SpA).
To evaluate the efficacy of the compounds on the extracellular forms of L. donovani, promastigotes in their late log/stationary phase were seeded with the complete HOMEM medium at 10^6 cells mL^–1 in 96-well plates and incubated with tested compounds at a range concentration of 600–1.6 μM in a 26 °C incubator for 72 h. The antileishmanial drug amphotericin B was used as the positive control, and untreated promastigotes were the negative control. Each experiment was performed in duplicate. Stock solution of the compounds was 8 mM in DMSO. […] The alamarBlue assay includes a colorimetric growth indicator based on detection of metabolic activity. Specifically, the system incorporates an oxidation–reduction (REDOX) indicator that changes color in response to chemical reduction of the growth medium resulting from cell growth. The method monitors the reducing environment of proliferating cells; the cell-permeable resazurin is added (nonfluorescent form, blue color) and, upon entering cells, is reduced to resorufin (fluorescent form, red color) as a result of cellular metabolic activity. Evaluation was performed by adding 20 μL of alamarBlue and incubating at 26 °C for 24 h. The reducing environment was evaluated after 24 h by absorbance measurement at the Multiskan ascent plate reader (Thermo Fisher Scientific Inc.) at 550 and 630 nm.
On the technique in general: The colour change of resazurin is a common sign of viable cells or microbes.

Series [3] is described as follows: Cytotoxicity test on Vero cells (alamarBlue). Type of series: cell-based, African green monkey. As to the method:
(§1) Vero cells (kidney of African green monkey epithelial cell line) were cultured at 37 °C in the MEM liquid medium supplemented with 10% FBS (EuroClone SpA), 1% levoglutamine (EuroClone SpA), and 1% penicillin–streptomycin (EuroClone SpA). THP-1 cells (human leukemia monocytic cell line) were cultured at 37 °C in the RPMI 1640 (EuroClone SpA) liquid medium supplemented with 10% FBS (EuroClone SpA), 1% levoglutamine (EuroClone SpA), 1% penicillin–streptomycin, and mercaptoethanol (Gibco) 50 μM.
(§2) The cytotoxicity of the compounds was determined using mammalian kidney epithelial cells (Vero cell line) and human acute monocytic leukemia cell line (THP-1). Cells were seeded (10^5 cells mL^–1) on 96-well plates with the complete MEM medium and incubated with test compounds at 37 °C in a 5% CO2 incubator. After 72 h of incubation, 20 μL of the alamarBlue reagent was added to each well and incubated at 37 °C for 24 h. Reduction of resazurin to resorufin was evaluated after 24 h by absorbance measurement at the Multiskan ascent plate reader (Thermo Fisher Scientific Inc.,) at 550 and 630 nm. […] Each experiment was performed in duplicate.

Series [4] can be described thus: Cytotoxicity test on THP-1 cells (alamarBlue). To be noted: human, THP-1 cells (acute monocytic leukemia cell line); CSV supplement; read-out: CC50 against human acute monocytic leukemia cell line (THP-1). The class given is cell-based. As to the method: as §1, §2
Cytotoxicity in THP-1 cell line
We performed additional cytotoxicity tests employing THP-1 cell line. We also calculated the
corresponding selectivity indexes, as the ratio between CC50 of THP-1 cell line and IC50 on amastigotes
THP-1 cells than on VERO cells; thus showing a not significant variance of selectivity index.
Table S3. Inhibitory activity of tetrahydropyrans 3 and endoperoxides 2 against amastigotes of L.
donovani, cytotoxicity in human acute monocytic leukemia cell line (THP-1) and selectivity index (SI).
Tetrahydropyran IC50 CC50 Endoperoxide IC50 CC50
a (µM)b (µM)c a (µM)b (µM)c
a Compounds tested as racemates. b IC50 represents the concentration of a compound that causes 50% growth inhibition.
Results represent the mean (± standard deviation, SD) of three independent experiments performed in duplicate. c CC50
represents 50% cytotoxic concentration on THP-1 cells. d Selectivity index (SI) = CC50/IC50. […]

Series [5] deals with intramacrophage amastigotes of L. donovani. Put plainly: Amastigote growth inhibition assay in infected THP-1 cells (Giemsa, infectivity index). The class given is cell-based, Leishmania donovani. Particulars: for IC50: Leishmania donovani, intracellular amastigotes in THP-1, 72 h, read-out: IC50 against amastigotes of L. donovani. As to the method:
To evaluate the efficacy of the compounds on the intracellular form of L. donovani, human acute monocytic leukemia cell line (THP-1) was infected with L. donovani promastigotes. Cells were harvested and seeded in a 96-well plate (10^5 cells mL^–1) in the complete RPMI 1640 medium, and PMA (0.1 μM, Cayman Chemical Company, Ann Arbor, Michigan, USA) was added for obtaining maturation and cell adherence. Cells were incubated at 37 °C in a 5% CO2 incubator. After 48 h, the medium was replaced with the fresh medium containing stationary-phase promastigotes that were then phagocyted by monocytic cells and transformed into intracellular amastigotes. After 24 h of incubation, newly synthesized compounds were added and the plates were incubated at 37 °C in a 5% CO2 incubator for 72 h. After incubation, wells were washed, fixed, and stained with Giemsa. Staining was detected using a Nikon Eclipse E200 light microscope (Nikon, Tokyo, Japan). The infectivity index (% of infected macrophages × average number of amastigotes per macrophage) was determined by counting at least 100 cells in duplicate cultures.

Series [6] concerns L. donovani promastigotes (MHOM/NP/02/BPK282/0cl4). Put plainly: Promastigote growth inhibition assay (alamarBlue). The class given is cell-based. Particulars: Leishmania donovani, HOMEM with 10% FBS.
[7] abbreviates: 72 h, alamarBlue, HOMEM 20% FBS, compounds as racemates, read-out: IC50 (concentration causing 50% growth inhibition) against promastigotes of L. donovani.
The mark [8] stands for this setting: chlorocebus sabaeus, Vero cells (kidney epithelial cell line), 72 h, alamarBlue, read-out: CC50 (50% cytotoxic concentration) on Vero cells.
Setting [9] is: THP-1 CC50 / IC50 on amastigotes.
Setting [10] is: Vero CC50 / IC50 on amastigotes.

As to `CO[C@]1(C)OCC(c2ccccc2)(c2ccccc2)C[C@@H]1CNCCCn1ccnc1` (racemic) [3b, 3-(1H-Imidazol-1-yl)-N-((2-methoxy-2-methyl-5,5-diphenyltetrahydro-2H-pyran-3-yl)methyl)propan-1-amine], the “Interaction with the iron chelator DFO (isobologram, ΣFIC)” value in series [1] is reported as “additive effects”. The IC50 in series [2] (setting [7]) was determined as 5.8 ± 0.9 µM; in series [5], 3.2 ± 0.9 µM; in series [6], 3.2 µM. In addition, the “Selectivity index (SI) = CC50/IC50” value in series [2] came to 7.3; in series [5] (setting [9]) it was 15.6; in series [5] (setting [10]), 13.2. In addition, the results for the CC50 at 72 h in series [3] (setting [8]) and in series [4] were 42.3 ± 3.2 µM and 50 µM, respectively.

`CO[C@]1(C)OCC(C)(C)C[C@@H]1CNCCCn1ccnc1` (racemic) [3c, 3-(1H-Imidazol-1-yl)-N-((2-methoxy-2,5,5-trimethyltetrahydro-2H-pyran-3-yl)methyl)propan-1-amine]: in series [2], the “Activity against promastigotes under the bioassay conditions” value is “inactive”. The IC50 in series [2] (setting [7]) is greater than 40 µM.

For `CO[C@]1(C)OCC(c2ccccc2)(c2ccccc2)C[C@@H]1COCc1cn(CCC[P+](c2ccccc2)(c2ccccc2)c2ccccc2)nn1.[Br-]` (racemic) [3d, (3-(4-(((2-Methoxy-2-methyl-5,5-diphenyltetrahydro-2H-pyran-3-yl)methoxy)methyl)-1H-1,2,3-triazol-1-yl)propyl)triphenylphosphonium bromide], the IC50 worked out at 18 ± 3 µM in series [2] (setting [7]) and 2.8 ± 0.7 µM in series [5]. Moreover, the figures for the “Selectivity index (SI) = CC50/IC50” value in series [2], in series [5] (setting [9]) and in series [5] (setting [10]) were 5.1, 22.9 and 32.8, respectively. Moreover, the results for the CC50 at 72 h in series [3] (setting [8]) and in series [4] were 92 ± 8.7 µM and 64.1 µM, respectively.

As for `CCCCC1(CCCC)CO[C@@](C)(OC)[C@@H](CNCCCCNc2c3ccc(Cl)cc3nc3ccc(OC)cc23)C1` (racemic) [3e, N^1-(6-Chloro-2-methoxyacridin-9-yl)-N^4-((5,5-dibutyl-2-methoxy-2-methyltetrahydro-2H-pyran-3-yl)methyl)butane-1,4-diamine], the IC50 in series [2] (setting [7]) came out at 0.9 µM. In addition, the “Selectivity index (SI) = CC50/IC50” value in series [2] was 1.3. In addition, in series [3] (setting [8]), the CC50 at 72 h came to 1.2 µM.

On to `CO[C@]1(C)OOC(C)(C)C[C@@H]1CNCCCn1ccnc1` [2c], for which the “Activity against promastigotes under the bioassay conditions” value in series [2] is “inactive”. Also, the IC50 in series [2] (setting [7]) was greater than 40 µM.

Consider `Br.CO[C@]1(C)OOC(c2ccccc2)(c2ccccc2)C[C@@H]1COCc1cn(CCC[P+](c2ccccc2)(c2ccccc2)c2ccccc2)nn1` [2d], for which the IC50 in series [2] (setting [7]) was 13.8 ± 2.2 µM; in series [5] it was 16.5 ± 1.5 µM. Also, the “Selectivity index (SI) = CC50/IC50” value in series [2] was 17.3; in series [5] (setting [9]), 8.6; in series [5] (setting [10]) it was 14.4. In addition, the CC50 at 72 h in series [3] (setting [8]) was 238 ± 36.8 µM; in series [4], 142 µM.

Consider `CCCCC1(CCCC)C[C@H](CNCCCCNc2c3ccc(Cl)cc3nc3ccc(OC)cc23)[C@](C)(OC)OO1` [2e, N^1-(6-Chloro-2-methoxyacridin-9-yl)-N^4-((6,6-dibutyl-3-methoxy-3-methyl-1,2-dioxan-4-yl)methyl)butane-1,4-diamine], for which, in series [2] (setting [7]), the IC50 was found to be 0.5 µM. Moreover, the “Selectivity index (SI) = CC50/IC50” value in series [2] is 2.6. Further, in series [3] (setting [8]), the CC50 at 72 h is 1.3 µM.

As for `CCCCC1(CCCC)C[C@H](CNCCCCNc2ccc([N+](=O)[O-])c3nonc23)[C@](C)(OC)OO1` [2f, N^1-((6,6-Dibutyl-3-methoxy-3-methyl-1,2-dioxan-4-yl)methyl)-N^4-(7-nitrobenzo[c][1,2,5]oxadiazol-4-yl)butane-1,4-diamine], in series [2] (setting [7]), the IC50 was determined as 11.4 µM. Moreover, in series [2], the “Selectivity index (SI) = CC50/IC50” value is given as 1.1. In addition, the CC50 at 72 h in series [3] (setting [8]) is 12.1 µM.

Regarding `C[C@H]1[C@H](OC(=O)CCC(=O)O)O[C@@H]2O[C@@]3(C)CC[C@H]4[C@H](C)CC[C@@H]1[C@@]24OO3` [Artesunate, reference compound], the IC50 in series [2] (setting [7]) and in series [5] was greater than 40 µM throughout.

As for `CC(=O)N(O)CCCCCNC(=O)CCC(=O)N(O)CCCCCNC(=O)CCC(=O)N(O)CCCCCN` [DFO, desferrioxamine, reference compound], the IC50 in series [2] (72 h, read-out: IC50 (concentration causing 50% growth inhibition) against promastigotes of L. donovani) turned out to be 187 µM. Besides, in series [3] (cell line not given, read-out: CC50 of the iron chelator), the CC50 at 72 h is greater than 400 µM.

For the molecule `Cc1c(O)c(=O)ccn1C` [DFP, deferiprone, reference compound], in series [2] (read-out: IC50 of the iron chelator DFP), the IC50 was found to be 219 µM. In addition, the CC50 at 72 h in series [3] (cell line not given, read-out: CC50 of the iron chelator DFP) stood at 143 µM.
